Measured values from US20210101879A1, “AMYLOID PROTEIN-SELECTIVE BACE INHIBITORS (ASBIs) FOR ALZHEIMER?S DISEASE” (The Regents of the University of California, priority 2018, published 2021).
Several values for one entry are separate records, joined by “and”; a condition that tells them apart may be missing. Equal entries are not always repeated. Where two headings read alike, the source gives them in different places.

How the values were obtained:
[1] = PAMPA; type: in vitro ADME
[2] = target: BACE-1 (Homo sapiens (Human), UniProt P56817); experiment: cell-free BACE enzyme assay with P5-P5′ substrate; type: biochemical
Chain of BACE-1 (P56817 46-501): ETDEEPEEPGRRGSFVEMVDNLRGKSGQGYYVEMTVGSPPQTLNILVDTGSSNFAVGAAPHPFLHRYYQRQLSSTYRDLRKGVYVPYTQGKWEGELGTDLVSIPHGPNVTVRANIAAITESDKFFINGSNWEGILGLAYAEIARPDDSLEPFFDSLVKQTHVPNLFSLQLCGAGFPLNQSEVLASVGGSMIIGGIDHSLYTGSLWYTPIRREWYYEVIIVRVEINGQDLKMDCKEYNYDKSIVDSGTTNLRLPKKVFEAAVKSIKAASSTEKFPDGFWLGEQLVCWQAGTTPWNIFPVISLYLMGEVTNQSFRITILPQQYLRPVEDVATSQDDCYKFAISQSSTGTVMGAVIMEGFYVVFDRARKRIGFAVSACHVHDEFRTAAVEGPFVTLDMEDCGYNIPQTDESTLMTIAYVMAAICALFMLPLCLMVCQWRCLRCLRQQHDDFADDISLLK
Protocol: For the assay, 4 μL of assay buffer was added to each well, followed by 2 μL of BACE-1 diluted in assay buffer to 7.5 ng/μL. Then, 2 μL of inhibitor, at concentrations along an 11 pt. two-fold dilution series starting at 0.5 μM, were added to appropriate wells and incubated for 30 minutes at room temperature. Afterwards, 2 μL of P5-P5′ BACE-1 substrate, diluted to 50 μM in assay buffer, were added to each well, after which the signal generated was read every 30 minutes at 25° C. for 2 hr.

[3] = pharmacokinetics in mice; type: in vivo
[4] = target: Cathepsin D (CatD) (Homo sapiens (Human), UniProt P07339); experiment: Cathepsin-D assay; type: biochemical
Chain of Cathepsin D (CatD) (P07339 65-412, species assumed): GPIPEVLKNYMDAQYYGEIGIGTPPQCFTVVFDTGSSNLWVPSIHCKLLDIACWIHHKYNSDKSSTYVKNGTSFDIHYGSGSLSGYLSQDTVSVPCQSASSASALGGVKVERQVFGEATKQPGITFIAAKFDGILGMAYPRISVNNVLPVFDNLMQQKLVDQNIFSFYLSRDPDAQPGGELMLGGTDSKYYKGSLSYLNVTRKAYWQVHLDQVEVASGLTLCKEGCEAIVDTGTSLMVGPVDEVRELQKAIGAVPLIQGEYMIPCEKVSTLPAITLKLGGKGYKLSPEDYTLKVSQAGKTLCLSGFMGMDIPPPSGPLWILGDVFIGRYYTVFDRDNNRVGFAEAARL
Protocol: For the assay, 4 μL of assay buffer was added to each well, followed by 2 μL of Cathepsin D (CatD) diluted in assay buffer to 5 ng/μL. Then, 2 μL of inhibitor, prepared to get a testing concentration of 20 μM, were added to appropriated wells and incubated for 30 minutes at room temperature. Afterwards, 2 μL of CatD substrate, diluted to 50 μM in assay buffer, were added to each well, after which the signal generated was read every 30 minutes at 25° C. for 1 hr. Signals shown in FIG. 6 are representative of readings at 1 hr.

[5] = test system: CHO-7W cells (stably transfected with human amyloid precursor protein wildtype); experiment: CHO-7W cell assay (AlphaLISA of media); type: cell-based, Chinese hamster; settings: treatment for 24 hours
Protocol: For the assay, 50 μL of CHO-7W cells were added to each well at 4×10^5 cells/mL. Then, 50 μL of inhibitor, prepared for tested concentrations, were added to appropriated wells and incubated for 24 hours at 37° C. Afterwards, media from each well is collected and assayed using an AlphaLISA assay for respective analytes.

[6] = cell-free, several replicate values per cell, some flagged 's' (flag not defined), read-out: BACE1 IC50

| SMILES | PAMPA [1] | IC50 [2, 6] | other results |
| --- | --- | --- | --- |
| Cc1cc(C2(c3cccc(C4CNC4)c3)N=C(N)N(C)C2=O)ccc1OC(F)F (stereo not shown) [FAH-64] | 0.35 |  |  |
| Cc1cc(C2(c3ccnc(F)c3)N=C(N)N(C)C2=O)ccc1OC(F)F (stereo not shown) [FAH-46] | 0.65 | 2.99 µM |  |
| CN1C(=O)C(c2cccc(-c3cncnc3)c2)(c2ccc3c(c2)CCO3)N=C1N (stereo not shown) [FAH-117] | 0.32 | 1.37 µM and 0.41 µM |  |
| CN1C(=O)C(c2cccc(-c3cncnc3)c2)(c2ccc3c(c2)OCCO3)N=C1N (stereo not shown) [FAH-135] | 0.26 | 0.21 µM |  |
| COCc1cccc(C2(c3ccc(OC(F)F)c(C)c3)N=C(N)N(C)C2=O)c1 (stereo not shown) [FAH-44] | 0.91 |  |  |
| Cc1cc(C2(C3CCCC(c4cncnc4)C3)N=C(N)N(C)C2=O)ccc1OC(F)F (stereo not shown) [FAH-85] | 0.51 2 peaks | 0.22 µM |  |
| CN1C(=O)C(c2ccc(OC(F)F)cc2)(c2cccc(-c3cncnc3)c2)N=C1N (stereo not shown) [FAH-74] | 0.36 | 0.0042 µM and 0.0025 µM and 0.0057 µM and 0.0075 µM and 0.015 µM and 0.023 µM | IC50 ([2]; cell-free BACE assay): 0.013 µM |
| Cc1cc(C2(c3ccc(OC(F)F)c(C)c3)N=C(N)N(C)C2=O)ccn1 (stereo not shown) [FAH-47] | 0.46 | 3.05 µM |  |
| CNCc1cccc(C2(c3ccc(OC(F)F)c(C)c3)N=C(N)N(C)C2=O)c1 (stereo not shown) [FAH-62] | 0.35 |  |  |
| Cc1cc(C2(c3ccc(F)c(-c4cncnc4)c3)N=C(N)N(C)C2=O)ccc1OC(F)F (stereo not shown) [FAH-127, 2-amino-5-(4-(difluoromethoxy)-3-methylphenyl)-5-(4-fluoro-3-(pyrimidin-5-yl)phenyl)-3-methyl-3,5-dihydro-4H-imidazol-4-one] | 0.53 and 0.49 and 0.50 | 0.014 µM and 0.013 µM and 0.005 µM and 0.0246 µM | IC50 ([2]; cell-free BACE assay): 0.013 µM; brain penetrance [3]: good brain-penetrance; brain peak ([3]; at 1 hour): ~3000 (range 600-6000) ng/g |
| Cc1cccc(C2(c3cccc(-c4cccnc4)c3)N=C(N)N(C)C2=O)c1 (stereo not shown) [FAH-75] | 0.62 | 0.21 µM and 0.24 µM and 0.15 µM and 0.42 µM |  |
| Cc1cc(C2(c3cccc(-c4ccnnc4)c3)N=C(N)N(C)C2=O)ccc1OC(F)F (stereo not shown) [FAH-72] | 0.37 | 0.14 µM and 0.1 µM and 0.049 µM and 0.087 µM and 0.093 µM |  |
| Cc1cc(C2(c3cocn3)N=C(N)N(C)C2=O)ccc1OC(F)F (stereo not shown) [FAH-38] | 3.46 | > 5 µM |  |
| CCCC1CC(C2(c3ccc(OC(F)F)c(C)c3)N=C(N)N(C)C2=O)CCN1C (stereo not shown) [FAH-68] | 0.20 | 16.1 µM |  |
| CN1C(=O)C(c2cccc(-c3cncnc3)c2)(c2ccc3c(c2)OC(F)(F)O3)N=C1N (stereo not shown) [FAH-137] | 0.59 | 0.46 µM |  |
| Cc1cc(C2(c3cccc(NC(=O)N(C)C)c3)N=C(N)N(C)C2=O)ccc1OC(F)F (stereo not shown) [FAH-99] | 0.38 | 0.15 µM and 0.21 µM |  |
| COc1cc(C2(c3ccc(OC(F)F)c(C)c3)N=C(N)N(C)C2=O)ccn1 (stereo not shown) [FAH-48] | 0.68 | 4.35 µM |  |
| Cc1cc(C2(c3cncc(F)c3)N=C(N)N(C)C2=O)ccc1OC(F)F (stereo not shown) [FAH-37] | 0.54 | 1.93 µM |  |
| CN1C(=O)C(C)(c2cccc(-c3cncnc3)c2)N=C1N (stereo not shown) [FAH-100] | 0.27 | 2.31 µM and 4.85 µM |  |
| Cc1ncc(-c2cccc(C3(C4CC4)N=C(N)N(C)C3=O)c2)cn1 (stereo not shown) [FAH-107] | 0.40 | 8.87 µM and 4.93 µM and 6.88 µM |  |
| Cc1cc(C2(c3cccc(-c4cccnc4)c3)N=C(N)N(C)C2=O)ccc1OC(F)F (stereo not shown) [FAH-32] | 0.91 and 0.92 | 0.011 µM and 0.016 µM and 0.017 µM | IC50 [4]: > 100 µM |
| Cc1cc(C2(c3cncnc3)N=C(N)N(C)C2=O)ccc1OC(F)F (stereo not shown) [FAH-33] | 0.24 | > 5 µM |  |
| CCCc1cncc(-c2cccc(C3(C(C)C)N=C(N)N(C)C3=O)c2)n1 (stereo not shown) [FAH-106] | 2.36 | 2.18 µM and 3.16 µM |  |
| Cc1cc(C2(C3CCN(C)CC3)N=C(N)N(C)C2=O)ccc1OC(F)F (stereo not shown) [FAH-67] | 0.20 |  |  |

| SMILES | PAMPA [1] | IC50 [2, 6] | other results |
| --- | --- | --- | --- |
| Cc1cc(C2(C3CCCCC3)N=C(N)N(C)C2=O)ccc1OC(F)F (stereo not shown) [FAH-59] | 4.43 | 0.72 µM |  |
| CC1CCN(c2cccc(C3(c4ccc(OC(F)F)cc4)N=C(N)N(C)C3=O)c2)C1 (stereo not shown) [FAH-88] | 4.53 2-peaks | 0.84 µM and 0.6 µM and 2.13 µM |  |
| Cc1cc(C2(c3cccc(-c4cnc(N)nc4)c3)N=C(N)N(C)C2=O)ccc1OC(F)F (stereo not shown) [FAH-110] | 0.46 | 0.047 µM and 0.038 µM | IC50 ([2]; cell-free BACE assay): 0.043 µM |
| Cc1cc(C2(c3cccc(F)c3)N=C(N)N(C)C2=S)ccc1OC(F)F (stereo not shown) [FAH-31] | 3.07 | 4.34 µM and 3.96 µM |  |
| Cc1cc(C2(c3cccc(F)c3)N=C(N)N(Cc3ccccc3)C2=O)ccc1OC(F)F (stereo not shown) [FAH-42] | 2.29 |  |  |
| CC#Cc1cncc(-c2cc(C3(c4ccnc(C(F)F)c4)N=C(N)N(C)C3=O)ccc2F)c1 (stereo not shown) [FAH-152] | 0.46 | 0.02 µM |  |
| Cc1cc(C2(c3cccc(-c4ccncn4)c3)N=C(N)N(C)C2=O)ccc1OC(F)F (stereo not shown) [FAH-87] | 0.58 | 0.3 µM and 0.34 µM and 0.42 µM and 0.29 µM |  |
| CN1C(=O)C(c2ccc(OCF)cc2)(c2cccc(-c3cncnc3)c2)N=C1N (stereo not shown) [FAH-84] | 0.30 |  |  |
| Cc1cc(C2(c3cccc(-c4cnco4)c3)N=C(N)N(C)C2=O)ccc1OC(F)F (stereo not shown) [FAH-43] | 0.79 | 0.14 µM and 0.23 µM and 0.49 µM | amyloid-beta (Aβ) [5]: significantly decreased; soluble amyloid precursor protein beta (sAPPβ) [5]: significantly decreased |
| Cc1cc(C2(c3cccc(-c4cncc(C5CC5)c4)c3)N=C(N)N(C)C2=O)ccc1OC(F)F (stereo not shown) [FAH-111] | solubility issue | 0.08 µM and 0.11 µM |  |
| Cc1cc(C2(c3cccc(-c4cnccn4)c3)N=C(N)N(C)C2=O)ccc1OC(F)F (stereo not shown) [FAH-86] | 0.68 |  | IC50 [4]: > 50 µM |
| CN1C(=O)C(c2cnc(OC(F)F)nc2)(c2cccc(F)c2)N=C1N (stereo not shown) [FAH-83] | 0.51 and 0.53 | 2.91 µM and 2.33 µM and 9.19 µM |  |
| Cc1cc(C2(c3cccc(-c4cncc(F)c4)c3)N=C(N)N(C)C2=O)ccc1OC(F)F (stereo not shown) [FAH-66] | 1.15 | 0.018 µM and 0.012 µM and 0.019 µM and 0.047 µM and 0.028 µM and 0.036 µM | amyloid-beta (Aβ) [5]: significantly decreased; soluble amyloid precursor protein beta (sAPPβ) [5]: significantly decreased |
| CC#Cc1cncc(-c2cccc(C3(C(C)C)N=C(N)N(C)C3=O)c2)n1 (stereo not shown) [FAH-101] | 1.71 |  |  |
| CN1C(=O)C(c2cccc(-c3cncnc3)c2)(c2ccc3occc3c2)N=C1N (stereo not shown) [FAH-116] | 0.52 | 0.27 µM and 0.26 µM |  |
| CN1C(=O)C(c2cc(-c3cncc(F)c3)ccc2F)(C2CC2)N=C1N (stereo not shown) [FAH-126] |  |  | BACE1 IC50 (μM) ([2]; cell-free, several replicate values per cell, some flagged 's' (flag not defined)): inactive |
| Cc1cc(C2(C3CCCC(c4ncco4)C3)N=C(N)N(C)C2=O)ccc1OC(F)F (stereo not shown) [FAH-69] | 0.92 | 0.11 µM and 0.21 µM and 0.12 µM and 0.43 µM |  |
| Cc1cc(C2(c3cc(-c4cncnc4)ccc3F)N=C(N)N(C)C2=O)ccc1OC(F)F (stereo not shown) [FAH-156] | 0.25 | 0.2 µM |  |
| COCc1cc(C2(c3ccc(OC(F)F)c(C)c3)N=C(N)N(C)C2=O)ccn1 (stereo not shown) [FAH-53] | 0.26 |  |  |
| CN1C(=O)C(c2cccc(-c3cncnc3)c2)(c2ccc3c(c2)OCO3)N=C1N (stereo not shown) [FAH-136] | 0.30 | 0.25 µM |  |
| Cc1cc(C2(c3cccc(-c4ccco4)c3)N=C(N)N(C)C2=O)ccc1OC(F)F (stereo not shown) [FAH-82] |  | 0.78 µM and 0.45 µM and 2.4 µM |  |
| CC#Cc1cc(C2(c3ccc(OC(F)F)c(C)c3)N=C(N)N(C)C2=O)ccn1 (stereo not shown) [FAH-57] | 0.61 | 0.44 µM and 0.51 µM | amyloid-beta (Aβ) [5]: significantly decreased; soluble amyloid precursor protein beta (sAPPβ) [5]: significantly decreased |
| CNCCc1cccc(C2(c3ccc(OC(F)F)c(C)c3)N=C(N)N(C)C2=O)c1 (stereo not shown) [FAH-63] | 0.38 |  |  |
| Cc1cc(C2(c3cccc(-c4ccccc4)c3)N=C(N)N(C)C2=O)ccc1OC(F)F (stereo not shown) [FAH-73] | 5.11 | 0.53 µM and 0.69 µM |  |
